These results are taken from patent US20140162991A1, “TESTOSTERONE-ANASTROZOLE (T + A) C[…] IN THE NEO-ADJUVANT, LOCAL AND SYSTEMIC THERAPY OF NEWLY DIAGNOSED, […] BREAST CANCER” (priority 2012, published 2014).

This series in a line: adverse effects and systemic symptoms in treated patients. The settings on record: pharmacologic doses of testosterone.

The structures appear in SMILES notation.

For `C[C@]12CC[C@H]3[C@@H](CCC4=CC(=O)CC[C@@]43C)[C@@H]1CC[C@@H]2O` [testosterone], the adverse events entry was “not associated with adverse events”. The androgenic side effect result (applicant's patients) is listed as “slight increase in facial hair”.
